Experimental data: patent US8772307B2, “Substituted spiro compounds and their use for producing pain-relief medicaments” (Gruenenthal GmbH, priority 2005, dated 2014)

Legend:
[1] = molecular target: T1, rat-species vanilloid receptor 1 (VR1/TRPV1) (Rattus norvegicus, UniProt O35433); experiment: Functional testing on vanilloid receptor 1 (VR1/TRPV1): FLIPR Ca2+ inflow assay in rat dorsal root ganglia cells (% activation / % inhibition vs capsaicin); type: cell-based; details: for inhibition at 10 µM: inhibition compared to 10 μM CP (capsaicin); for activation at 10 µM: stimulation compared to 10 μM CP (capsaicin); for IC50: capsaicin (CAP) stimulus, average
T1 construct: endogenous in cells; host or cells: primary cells dissociated from rat dorsal root ganglia (DRG)
T1 sequence (O35433 whole entry): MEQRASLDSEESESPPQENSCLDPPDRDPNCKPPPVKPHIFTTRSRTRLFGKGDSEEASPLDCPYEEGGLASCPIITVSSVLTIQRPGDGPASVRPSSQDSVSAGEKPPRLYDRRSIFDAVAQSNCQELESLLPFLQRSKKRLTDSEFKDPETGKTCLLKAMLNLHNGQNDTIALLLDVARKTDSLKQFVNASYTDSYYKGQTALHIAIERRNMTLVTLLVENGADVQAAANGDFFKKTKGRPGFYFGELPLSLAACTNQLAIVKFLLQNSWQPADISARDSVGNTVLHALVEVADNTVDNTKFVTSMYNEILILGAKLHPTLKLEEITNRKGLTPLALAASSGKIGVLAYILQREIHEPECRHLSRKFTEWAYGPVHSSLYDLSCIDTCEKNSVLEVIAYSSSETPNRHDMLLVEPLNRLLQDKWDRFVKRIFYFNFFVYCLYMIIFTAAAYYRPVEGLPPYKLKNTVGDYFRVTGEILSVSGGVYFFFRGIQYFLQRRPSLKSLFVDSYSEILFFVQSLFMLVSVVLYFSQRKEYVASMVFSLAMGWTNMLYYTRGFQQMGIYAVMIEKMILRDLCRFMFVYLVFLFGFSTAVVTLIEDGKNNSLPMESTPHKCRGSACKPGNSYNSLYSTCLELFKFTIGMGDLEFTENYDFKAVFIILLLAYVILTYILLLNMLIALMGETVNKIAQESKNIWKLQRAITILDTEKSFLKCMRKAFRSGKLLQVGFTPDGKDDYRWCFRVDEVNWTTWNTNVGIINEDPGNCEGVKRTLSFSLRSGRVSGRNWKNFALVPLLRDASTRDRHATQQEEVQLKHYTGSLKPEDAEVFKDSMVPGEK
How it was run: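 Rat dorsal root ganglion cells, dissociated with collagenase and trypsin, were plated at 3×10^5/mL on laminin-coated plates in NGF-containing HAMS F12 and cultured 2-3 days at 37° C. Ca2+ inflow read by Fluo-4 fluorescence on FLIPR; test compounds at 10 μM referenced to 10 μM capsaicin.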

[2] = molecular target: T2, vanilloid receptor (VR1) (Homo sapiens, UniProt Q8NER1); experiment: Functional testing on vanilloid receptor (VR1): FLIPR Ca2+ inflow assay in CHO K1 cells stably transfected with the VR1 gene; type: cell-based; details: for inhibition at 10 µM: CHO-K1, inhibition compared to 10 μM CP (capsaicin); for activation at 10 µM: CHO-K1, stimulation compared to 10 μM CP (capsaicin); for IC50: capsaicin (CAP) stimulus, average
T2 construct: expressed in transfected cells; host or cells: CHO K1 cells (ECACC), stably transfected
T2 sequence (Q8NER1 whole entry): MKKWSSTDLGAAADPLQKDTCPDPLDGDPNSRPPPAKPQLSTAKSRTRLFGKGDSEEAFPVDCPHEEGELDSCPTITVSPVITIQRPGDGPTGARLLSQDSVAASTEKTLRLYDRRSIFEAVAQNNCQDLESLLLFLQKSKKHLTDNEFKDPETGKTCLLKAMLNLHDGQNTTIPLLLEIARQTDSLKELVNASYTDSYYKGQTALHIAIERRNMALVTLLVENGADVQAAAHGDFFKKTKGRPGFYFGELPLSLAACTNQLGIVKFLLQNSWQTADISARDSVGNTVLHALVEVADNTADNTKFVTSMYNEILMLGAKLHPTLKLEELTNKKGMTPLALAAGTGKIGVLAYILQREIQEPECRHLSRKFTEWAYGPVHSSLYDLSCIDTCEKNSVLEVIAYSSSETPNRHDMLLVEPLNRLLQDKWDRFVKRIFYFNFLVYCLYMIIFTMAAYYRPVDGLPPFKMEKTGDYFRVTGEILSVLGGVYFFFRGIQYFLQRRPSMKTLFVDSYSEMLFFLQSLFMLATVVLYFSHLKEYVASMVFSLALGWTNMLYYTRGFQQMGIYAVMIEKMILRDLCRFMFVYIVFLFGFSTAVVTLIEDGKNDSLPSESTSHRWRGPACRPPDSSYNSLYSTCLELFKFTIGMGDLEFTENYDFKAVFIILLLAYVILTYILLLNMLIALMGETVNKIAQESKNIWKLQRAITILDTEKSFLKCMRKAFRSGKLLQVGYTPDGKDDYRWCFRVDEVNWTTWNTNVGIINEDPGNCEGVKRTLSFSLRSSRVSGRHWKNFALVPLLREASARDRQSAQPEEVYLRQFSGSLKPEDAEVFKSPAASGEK
How it was run: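 CHO K1 cells stably expressing VR1, loaded with Fluo-4 (2 μM, 30 min, 37° C); peak Ca²⁺ fluorescence read on FLIPR. Compound (10 μM) added first, agonism as % of 10 μM capsaicin signal; after 5 min, 100 nM capsaicin added, % inhibition calculated relative to maximal inhibition with 10 μM capsaicin.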

Row | inhibition at 10 µM [1] [%] | activation at 10 µM [1] [%] | inhibition at 10 µM [2] [%] | activation at 10 µM [2] [%] | IC50 [1] [nM] | IC50 [2] [nM] | SMILES
1 | 62.1 | -0.47 | 3.6 | 0.89 |  |  | CC(C)c1ccc(NC(=O)N2CCC3(CC2)CC(c2ccc(C(C)(C)C)cc2)=NO3)cc1 [Compound 80, 3-(4-tert-butylphenyl)-1-oxa-2,8-diazaspiro[4.5]dec-2-ene-8-carboxylic acid-(4-isopropylphenyl)amide]
2 | 82 | -6 | 6 | 0 | 150 | 825 | O=C(C=Cc1ccc(C(F)(F)F)cc1)N1CCC2(CC1)CC(c1ccccc1)=NO2 [Compound 314, 1-(3-phenyl-1-oxa-2,8-diazaspiro[4.5]dec-2-en-8-yl)-3-(4-trifluoromethylphenyl)propenone]
3 | 84 | 0 | 23 | 0 |  |  | CC(C)(C)c1ccc(/C=C/C(=O)N2CCC3(CC2)CC(c2cccc(F)c2)=NO3)cc1 [Compound 353, (E)-3-(4-tert-butylphenyl)-1-(3-(3-fluorophenyl)-1-oxa-2,8-diazaspiro[4.5]dec-2-en-8-yl)prop-2-en-1-one]
4 | 80 | 3 | 12 | 0 |  |  | CC(C)(C)c1ccc(/C(=C/C(=O)N2CCC3(CC2)CC(c2cccc(F)c2)=NO3)c2ccc(Cl)c(Cl)c2)cc1 [Compound 360, (Z)-3-(4-tert-butylphenyl)-3-(3,4-dichlorophenyl)-1-(3-(3-fluorophenyl)-1-oxa-2,8-diazaspiro[4.5]dec-2-en-8-yl)prop-2-en-1-one]
5 | 39.9 | -0.73 | 2.57 | -0.22 |  |  | CC(C)(C)c1ccc(C2=NOC3(CCN(C(=O)Nc4ccc(Cl)cc4)CC3)C2)cc1 [Compound 42, 3-(4-tert-butylphenyl)-1-oxa-2,8-diazaspiro[4.5]dec-2-ene-8-carboxylic acid-(4-chlorophenyl)amide]
6 | 47.3 | -0.04 | 16.4 | -0.22 |  |  | CSc1ccccc1NC(=O)N1CCC2(CC1)CC(c1ccc(C(C)(C)C)cc1)=NO2 [Compound 56, 3-(4-tert-butylphenyl)-1-oxa-2,8-diazaspiro[4.5]dec-2-ene-8-carboxylic acid-(2-methylsulphanylphenyl)amide]
7 | 57 | 3 | 26 | 0 |  |  | CC(C)(C)c1ccc(/C(=C/C(=O)N2CCC3(CC2)CC(c2ccccc2F)=NO3)c2ccc(Cl)c(Cl)c2)cc1 [Compound 359, (Z)-3-(4-tert-butylphenyl)-3-(3,4-dichlorophenyl)-1-(3-(2-fluorophenyl)-1-oxa-2,8-diazaspiro[4.5]dec-2-en-8-yl)prop-2-en-1-one]
8 | 81 | 1 | -4 | 0 |  |  | CC(C)(C)c1ccc(CCC(=O)N2CCC3(CC2)CC(c2ccccc2)=NO3)cc1 [Compound 350, 3-(4-tert-butylphenyl)-1-(3-phenyl-1-oxa-2,8-diazaspiro[4.5]dec-2-en-8-yl)propan-1-one]

More lines, now with the values behind:

Row | SMILES | inhibition at 10 µM [1] [%] | activation at 10 µM [1] [%] | inhibition at 10 µM [2] [%] | activation at 10 µM [2] [%] | IC50 [1] [nM] | IC50 [2] [nM]
9 | O=C(C#Cc1ccc(C(F)(F)F)cc1)N1CCC2(CC1)CC(c1ccccc1)=NO2 [Compound 363, 1-(3-phenyl-1-oxa-2,8-diazaspiro[4.5]dec-2-en-8-yl)-3-(4-(trifluoromethyl)phenyl)prop-2-yn-1-one] | 81 | 0 | 30 | 0 |  | 
10 | O=C(Nc1ccccc1)N1CCC2(CC1)CC(c1ccc(Cl)cc1)=NO2 [Compound 3, 3-(4-chlorophenyl)-1-oxa-2,8-diazaspiro[4.5]dec-2-ene-8-carboxylic acid phenylamide] | 43.8 | -0.73 | 13.4 | 0.01 |  | 
11 | COc1cccc(C2=NOC3(CCN(C(=O)C#Cc4ccc(C(F)(F)F)cc4)CC3)C2)c1 [Compound 361, 1-(3-(3-methoxyphenyl)-1-oxa-2,8-diazaspiro[4.5]dec-2-en-8-yl)-3-(4-(trifluoromethyl)phenyl)prop-2-yn-1-one] | 58 | 0 | 12 | 0 |  | 
12 | O=C(Nc1ccc(C(F)(F)F)cc1)N1CCC2(CC1)CC(c1ccc(Cl)cc1)=NO2 [Compound 212, 3-(4-chlorophenyl)-1-oxa-2,8-diazaspiro[4.5]dec-2-ene-8-carboxylic acid-(4-trifluoromethylphenyl)amide] | 61.9 | -0.43 | -16.1 | -0.21 |  | 
13 | Cc1ccc(C2=NOC3(CCN(C(=O)Nc4cc(C(F)(F)F)ccc4Cl)CC3)C2)cc1 [Compound 225, 3-p-tolyl-1-oxa-2,8-diazaspiro[4.5]dec-2-ene-8-carboxylic acid-(2-chloro-5-trifluoromethylphenyl)amide] | 47.8 | -0.47 | -4.5 | 0.31 |  | 
14 | COc1cccc(C2=NOC3(CCN(C(=O)NCCc4ccccc4)CC3)C2)c1 [Compound 122, 3-(3-methoxyphenyl)-1-oxa-2,8-diazaspiro[4.5]dec-2-ene-8-carboxylic acid phenethylamide] | 49.2 | -0.47 | -13.1 | 0.07 |  | 
15 | O=C(Nc1ccc(C(F)(F)F)cc1)N1CCC2(CC1)CC(c1ccccc1)=NO2 [Compound 211, 3-phenyl-1-oxa-2,8-diazaspiro[4.5]dec-2-ene-8-carboxylic acid-(4-trifluoromethylphenyl)amide] | 97.5 | 0.33 | 9.23 | -0.18 |  | 
16 | O=C(Nc1ccc(Br)cc1)N1CCC2(CC1)CC(c1ccccc1)=NO2 [Compound 197, 3-phenyl-1-oxa-2,8-diazaspiro[4.5]dec-2-ene-8-carboxylic acid-(4-bromophenyl)amide] | 59.9 | -0.35 | -17.2 | 0.06 |  | 
17 | CC(C)c1ccc(C=CC(=O)N2CCC3(CC2)CC(c2ccccc2)=NO3)cc1 [Compound 325, 3-(4-isopropylphenyl)-1-(3-phenyl-1-oxa-2,8-diazaspiro[4.5]dec-2-en-8-yl)propenone] | 63 | -6 | 6 | 0 | 270 | 875
18 | COc1cccc(C2=NOC3(CCN(C(=O)Nc4cccc(F)c4)CC3)C2)c1 [Compound 174, 3-(3-methoxyphenyl)-1-oxa-2,8-diazaspiro[4.5]dec-2-ene-8-carboxylic acid-(3-fluorophenyl)amide] | 47.8 | -0.28 | -25 | 5.9 |  | 
19 | COc1cccc(C2=NOC3(CCN(C(=O)Nc4cccc(Br)c4)CC3)C2)c1 [Compound 192, 3-(3-methoxyphenyl)-1-oxa-2,8-diazaspiro[4.5]dec-2-ene-8-carboxylic acid-(3-bromophenyl)amide] | 52.1 | -0.07 | -6.74 | -0.04 |  | 
